Results as given in US20230407243A1, “GENETIC PLATFORM TO INVESTIGATE THE FUNCTIONS OF BACTERIAL DRUG EFFLUX PUMPS” (priority 2022, published 2023).
Like-named read-outs stand apart in the source and are kept apart here.

Legend:
Assay type in all cases: cell-based, Escherichia coli
E. coli EKO-35 = assay: microbe, parasite or virus in culture; conditions: for Fold change of MICs: EKO-35 compared to EKO-35 (reference); for MIC: Escherichia coli, EKO35; for MIC / Minimum inhibitory concentration (MIC), EKO-35 / Minimum Inhibitory Concentration, EKO-35: technical duplicate
Experimental: (§1) Single colonies were used to inoculate 3 mL of LB followed by incubation at 37° C. for 18 h with aeration at 220 rpm. The bacterial cells were harvested by centrifugation and resuspended in phosphate buffered saline (PBS) ([pH 7.4], 137 mM NaCl (Bioshop), 2.7 mM KCl (Bioshop), 10 mM Na2PO4 (Bioshop) and 1.8 mM K2PO4) to an OD600 nm˜1.0, followed by 1/2000 dilution into MHB II.
(§2) To a 384-well microtiter plate (Corning, untreated polystyrene), 500 nL of compound was dispensed, in duplicate, and serially titrated 2-fold using an Echo 550 acoustic liquid dispenser (Labcyte Inc.). […] As a solvent control, 500 nL of DMSO was applied to wells that contained no compound. Using a multichannel pipette, 50 μL of the prepared bacterial inoculum was applied to each well. To enable background correction post-incubation, the OD600 nm was measured (Biotek Synergy Neo2 microplate reader) prior to incubation. The plates were incubated at 37° C. with aeration at 900 rpm for 18 h. The plates were equilibrated to room temperature and the OD600 nm measured using a BioTek Synergy Neo2 microplate reader. Data was analyzed in both Prism (GraphPad, Version 9.2.0) and Microsoft Excel (Version 16.53). Raw data were input into Microsoft Excel and the pre-incubation OD600 nm measurements were subtracted from the post-incubation OD600 nm measurements. These corrected measurements were input into Prism 9 as a grouped analysis. […] All other MIC values were adjusted accordingly and visualized using the single-color scale grouped heat map function. Identification of compound chemical properties was achieved using DataWarrior (Version 5.5.0). Using PubChem, the SMILES chemical notation for each compound was obtained and compiled in Microsoft Excel. The resulting spreadsheet was input into DataWarrior and properties were calculated from the compound chemical structures.

E. coli ΔtolC = assay: microbe, parasite or virus in culture; conditions: for MIC: Escherichia coli, 18 h, read-out: Minimum Inhibitory Concentration, ΔtolC; for Minimum inhibitory concentration (MIC), ΔtolC: Table 10, without pore; for Minimum inhibitory concentration (MIC), ΔtolC / Minimum Inhibitory Concentration, ΔtolC: technical duplicate; for Minimum Inhibitory Concentration, ΔtolC: Table 13A, non-porinated
Experimental: as §1, §2

[1] = test system: wild-type E. coli K-12 str. BW25113; assay: microbe, parasite or virus in culture; conditions: technical duplicate; for MIC: Escherichia coli, BW25113
Experimental: as §1, §2

EKO-35 araC::acrB = assay: MIC susceptibility profiling, efflux platform; conditions: for Fold change of MICs: EKO-35 araC::acrB compared to EKO-35; for MIC: Escherichia coli, read-out: Minimum Inhibitory Concentration, EKO-35 araC::acrB; for MIC / Minimum Inhibitory Concentration, EKO-35 araC::acrB: Table 13A, non-porinated, technical duplicate
Summary of the method: (§3)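 Overnight LB cultures were grown at 37 °C with aeration, then washed into PBS, pH 7.4, to OD600 ~1.0. A 1/2000 dilution in MHB II was exposed to compound dilution series for 18 h at 37 °C. The MIC was taken from corrected OD600.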

EKO-35 araC::acrD = assay: MIC susceptibility profiling, efflux platform; conditions: for Fold change of MICs: EKO-35 araC::acrD compared to EKO-35; for MIC: Escherichia coli, read-out: Minimum Inhibitory Concentration, EKO-35 araC::acrD; for MIC / Minimum Inhibitory Concentration, EKO-35 araC::acrD: Table 13A, non-porinated, technical duplicate
Summary of the method: as §3

EKO-35 araC::mdtBC = assay: MIC susceptibility profiling, efflux platform; conditions: for Fold change of MICs: EKO-35 araC::mdtBC compared to EKO-35; for MIC: Escherichia coli, read-out: Minimum Inhibitory Concentration, EKO-35 araC::mdtBC; for MIC / Minimum Inhibitory Concentration, EKO-35 araC::mdtBC: Table 13B, non-porinated, technical duplicate
Summary of the method: as §3

[2] = test system: EKO-35 araC::mexCD (MexCD from P. aeruginosa); assay: MIC susceptibility profiling, efflux platform; conditions: for Fold change of MICs: EKO-35 araC::mexCD compared to EKO-35; for MIC / Minimum Inhibitory Concentration, EKO-35 araC::mexCD: Table 13B, non-porinated, technical duplicate; for MIC: read-out: Minimum Inhibitory Concentration, EKO-35 araC::mexCD
Summary of the method: as §3

EKO-35-Pore = assay: MIC susceptibility profiling, porinated strain; conditions: for Fold changes of MICs: EKO-35-Pore compared to EKO-35-Pore (reference); for MIC: Escherichia coli; for MIC / Minimum inhibitory concentration (MIC), Pore EKO-35 / Minimum inhibitory concentration, EKO-35-Pore: technical duplicate
Experimental: For genomic integration of the pore, the fhuA ΔC/Δ4L gene and the adjacent gentamicin resistance cassette were amplified using a high-fidelity polymerase and the fhuA_40_Up/gImS_3680_Low primers (Table 4). Integration of the pore gene was performed as described above. The pore gene was introduced into the intergenic region between the glmS and pstS genes, with gene expression under the control of a constitutive promoter (Kearse, M. et al., 2012). Genomic integrations were verified using PCR (Primers: pstS_520_Up/glmS_3680_Low, Table 4). Successful integrations were transformed with pCP20 to remove the gentamicin resistance cassette as previously described. Activity of the pore was confirmed through susceptibility testing with the large antibiotic vancomycin prior to phenotypic profiling and further susceptibility testing.
as §1, §2

[3] = Table 10, without pore, read-out: Minimum inhibitory concentration (MIC), EKO-35
[4] = Table 13A, non-porinated, read-out: Minimum Inhibitory Concentration, EKO-35
[5] = Table 10, without pore, read-out: Minimum inhibitory concentration (MIC), K-12
[6] = Table 13A, non-porinated, read-out: Minimum Inhibitory Concentration, K-12
[7] = Table 10, with pore, read-out: Minimum inhibitory concentration (MIC), Pore EKO-35
[8] = Table 14A, porinated, read-out: Minimum inhibitory concentration, EKO-35-Pore

SMILES	Fold change of MICs (E. coli EKO-35)	MIC (E. coli EKO-35; [3])	MIC (E. coli EKO-35; [4])	MIC (E. coli ΔtolC)	Minimum inhibitory concentration (MIC), ΔtolC (E. coli ΔtolC)	MIC [1, 5]	MIC [1, 6]	Fold change of MICs (EKO-35 araC::acrB)	MIC (EKO-35 araC::acrB)	Fold change of MICs (EKO-35 araC::acrD)	MIC (EKO-35 araC::acrD)	Fold change of MICs (EKO-35 araC::mdtBC)	MIC (EKO-35 araC::mdtBC)	Fold change of MICs [2]	MIC [2]	Fold changes of MICs (EKO-35-Pore)	Minimum inhibitory concentration (MIC), EKO-35 (E. coli EKO-35; Table 10, without pore)	Minimum Inhibitory Concentration, EKO-35 (E. coli EKO-35; Table 13A, non-porinated)	Minimum Inhibitory Concentration, ΔtolC (E. coli ΔtolC)	Minimum inhibitory concentration (MIC), K-12 ([1]; Table 10, without pore)	also measured
COc1cccc2c1C(=O)c1c(O)c3c(c(O)c1C2=O)C[C@@](O)(C(C)=O)C[C@@H]3O[C@H]1C[C@H](N)[C@H](O)[C@H](C)O1 [daunorubicin]	1 fold	3.12 µg/mL	3.12 µg/mL	1.56 µg/mL	1.563 µg/mL	200 µg/mL	200 µg/mL	64 fold	200 µg/mL	2 fold	6.25 µg/mL	1 fold	1.56 µg/mL	32 fold	100 µg/mL	1 fold	–	–	–	–	MIC (EKO-35-Pore; [7]): 0.781 µg/mL; MIC (EKO-35-Pore; [8]): 0.781 µg/mL
C[C@H](CCC(=O)NCCS(=O)(=O)[O-])[C@H]1CC[C@H]2[C@@H]3CC[C@@H]4C[C@H](O)CC[C@]4(C)[C@H]3C[C@H](O)[C@]12C.[Na+] [sodium taurodeoxycholate]	1 fold	–	–	–	250 µg/mL	–	–	2 fold	–	2 fold	–	2 fold	–	2 fold	–	1 fold	500 µg/mL	500 µg/mL	250 µg/mL	1000 µg/mL	Minimum Inhibitory Concentration, K-12 ([1]; Table 13A, non-porinated): 1000 µg/mL; Minimum Inhibitory Concentration, EKO-35 araC::acrB (EKO-35 araC::acrB): 1000 µg/mL; Minimum Inhibitory Concentration, EKO-35 araC::acrD (EKO-35 araC::acrD): 1000 µg/mL; Minimum Inhibitory Concentration, EKO-35 araC::mdtBC (EKO-35 araC::mdtBC): 1000 µg/mL; Minimum Inhibitory Concentration, EKO-35 araC::mexCD [2]: 1000 µg/mL; Minimum inhibitory concentration (MIC), Pore EKO-35 (EKO-35-Pore; Table 10, with pore): 250 µg/mL; Minimum inhibitory concentration, EKO-35-Pore (EKO-35-Pore; Table 14A, porinated): 250 µg/mL
C[n+]1c2cc(N)ccc2cc2ccc(N)cc21.[Cl-] [acriflavine]	1 fold	–	–	–	3.125 µg/mL	–	–	32 fold	–	2 fold	–	1 fold	–	8 fold	–	1 fold	0.098 µg/mL	0.098 µg/mL	3.125 µg/mL	50 µg/mL	susceptibility of EKO-35 compared with the ΔtolC mutant (E. coli EKO-35): more susceptible; Minimum Inhibitory Concentration, K-12 ([1]; Table 13A, non-porinated): 50 µg/mL; Minimum Inhibitory Concentration, EKO-35 araC::acrB (EKO-35 araC::acrB): 3.125 µg/mL; restoration of resistance to wild-type levels by acrB alone (EKO-35 araC::acrB; overexpression of acrB in EKO-35): did not restore resistance to wild-type levels; Minimum Inhibitory Concentration, EKO-35 araC::acrD (EKO-35 araC::acrD): 0.195 µg/mL; Minimum Inhibitory Concentration, EKO-35 araC::mdtBC (EKO-35 araC::mdtBC): 0.098 µg/mL; Minimum Inhibitory Concentration, EKO-35 araC::mexCD [2]: 0.781 µg/mL; Minimum inhibitory concentration (MIC), Pore EKO-35 (EKO-35-Pore; Table 10, with pore): 0.098 µg/mL; Minimum inhibitory concentration, EKO-35-Pore (EKO-35-Pore; Table 14A, porinated): 0.098 µg/mL
Nc1ccc(S(=O)(=O)Nc2nccs2)cc1 [Sulfathiazole]	1 fold	10 µg/mL	10 µg/mL	5 µg/mL	5 µg/mL	5 µg/mL	5 µg/mL	1 fold	10 µg/mL	1 fold	10 µg/mL	1 fold	10 µg/mL	1 fold	10 µg/mL	1 fold	–	–	–	–	–
CC(C)(C)c1cc(C(=O)NNC(=O)Nc2cccc3ccccc23)n(Cc2ccc(F)cc2)n1 [compound 4]	1 fold	–	–	–	10 µg/mL	–	–	16 fold	–	16 fold	–	1 fold	–	16 fold	–	1 fold	20 µg/mL	20 µg/mL	10 µg/mL	320 µg/mL	susceptibility of EKO-35 to the compound (E. coli EKO-35; synthetic efflux substrates of FIG. 12): susceptible; Minimum Inhibitory Concentration, K-12 ([1]; Table 13A, non-porinated): 320 µg/mL; Minimum Inhibitory Concentration, EKO-35 araC::acrB (EKO-35 araC::acrB): 320 µg/mL; Minimum Inhibitory Concentration, EKO-35 araC::acrD (EKO-35 araC::acrD): 320 µg/mL; Minimum Inhibitory Concentration, EKO-35 araC::mdtBC (EKO-35 araC::mdtBC): 20 µg/mL; Minimum Inhibitory Concentration, EKO-35 araC::mexCD [2]: 320 µg/mL; Minimum inhibitory concentration (MIC), Pore EKO-35 (EKO-35-Pore; Table 10, with pore): 2.5 µg/mL; Minimum inhibitory concentration, EKO-35-Pore (EKO-35-Pore; Table 14A, porinated): 2.5 µg/mL
[H]/N=C(\N/C(=N/[H])NCCCCCCNC(=N)NC(=N)Nc1ccc(Cl)cc1)Nc1ccc(Cl)cc1 [Chlorhexidine]	1 fold	0.391 µg/mL	0.391 µg/mL	0.391 µg/mL	0.391 µg/mL	0.781 µg/mL	0.781 µg/mL	1 fold	0.391 µg/mL	1 fold	0.391 µg/mL	1 fold	0.391 µg/mL	1 fold	0.391 µg/mL	1 fold	–	–	–	–	MIC (EKO-35-Pore; [7]): 0.391 µg/mL; MIC (EKO-35-Pore; [8]): 0.391 µg/mL
